What is called IC50 is the concentration that gives 50% inhibition.

Structures are written as SMILES. Like-named read-outs stand apart in the source and are kept apart here.

Among the data in US10829478B2, “5-[3-[piperazin-1-yl]-3-oxo-propyl]-imidazolidine-2,4-dione derivatives as ADAMTS 4 and 5 inhibitors for treating e.g. osteoarthritis” (Galapagos NV, priority 2016, dated 2020) are IC50 values, retold here.

The target in assay [1] is human ADAMTS4 (Homo sapiens (Human), UniProt O75173). Description: hADAMTS-4 TBIS-1 cleavage assay, Protocol 2. Format: biochemical.
Sequence of human ADAMTS4 (O75173 213-837): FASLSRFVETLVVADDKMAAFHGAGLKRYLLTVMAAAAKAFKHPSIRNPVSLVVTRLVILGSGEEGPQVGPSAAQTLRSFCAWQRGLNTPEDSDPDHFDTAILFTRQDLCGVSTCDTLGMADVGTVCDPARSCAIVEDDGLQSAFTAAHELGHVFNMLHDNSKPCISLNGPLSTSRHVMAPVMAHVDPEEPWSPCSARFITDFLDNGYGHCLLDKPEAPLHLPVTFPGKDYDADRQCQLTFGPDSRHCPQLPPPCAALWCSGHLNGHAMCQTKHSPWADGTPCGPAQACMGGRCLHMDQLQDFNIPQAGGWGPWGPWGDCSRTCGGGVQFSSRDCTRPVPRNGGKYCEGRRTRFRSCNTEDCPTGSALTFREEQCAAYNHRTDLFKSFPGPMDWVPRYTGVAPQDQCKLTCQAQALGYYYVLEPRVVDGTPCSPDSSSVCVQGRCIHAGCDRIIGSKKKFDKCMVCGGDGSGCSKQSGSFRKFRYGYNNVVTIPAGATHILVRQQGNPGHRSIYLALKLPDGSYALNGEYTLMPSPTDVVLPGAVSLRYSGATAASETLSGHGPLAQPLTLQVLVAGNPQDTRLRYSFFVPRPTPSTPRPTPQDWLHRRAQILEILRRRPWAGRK
Assay [2] has as its target human ADAMTS-5 (Homo sapiens (Human), UniProt Q9UNA0). Description: hADAMTS-5 TBIS-1 cleavage assay, Protocol 3. The format is biochemical. Conditions: 90 min at 37° C., read-out: hADAMTS-5 potency IC50.
Experimental: The reaction is initiated by adding to the assay plate TBIS-1 (10 μL, 4.5 μM, Anaspec) in the same buffer.
Finally, the fluorescence is read on the Envision (Perkin Elmer) after an incubation of 90 min at 37° C. (Excitation 485 nm, emission 530).
The target of assay [3] is human ADAMTS6 (Homo sapiens (Human), UniProt Q9UKP5). Description: hADAMTS-6 fluorescent based protease assay (520 MMP FRET substrate XII). The format is biochemical. Conditions: 37° C. for 2 h; read-out: hADAMTS-6 potency IC50. The gist of the method: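 ADAMTS6 (0.73 nM final) in 25 mM Tris pH 8.0, 0.05% CHAPS, 2.5 mM CaCl2 with compound dilution series (top 20 μM, 1/5 steps). Reaction started with 520 MMP FRET Substrate XII, incubated 2 h at 37 °C. Substrate cleavage read by fluorescence ex485/em530; IC50 determined.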
Sequence of human ADAMTS6 (Q9UKP5 other isoform, or with tags, fused parts or gaps): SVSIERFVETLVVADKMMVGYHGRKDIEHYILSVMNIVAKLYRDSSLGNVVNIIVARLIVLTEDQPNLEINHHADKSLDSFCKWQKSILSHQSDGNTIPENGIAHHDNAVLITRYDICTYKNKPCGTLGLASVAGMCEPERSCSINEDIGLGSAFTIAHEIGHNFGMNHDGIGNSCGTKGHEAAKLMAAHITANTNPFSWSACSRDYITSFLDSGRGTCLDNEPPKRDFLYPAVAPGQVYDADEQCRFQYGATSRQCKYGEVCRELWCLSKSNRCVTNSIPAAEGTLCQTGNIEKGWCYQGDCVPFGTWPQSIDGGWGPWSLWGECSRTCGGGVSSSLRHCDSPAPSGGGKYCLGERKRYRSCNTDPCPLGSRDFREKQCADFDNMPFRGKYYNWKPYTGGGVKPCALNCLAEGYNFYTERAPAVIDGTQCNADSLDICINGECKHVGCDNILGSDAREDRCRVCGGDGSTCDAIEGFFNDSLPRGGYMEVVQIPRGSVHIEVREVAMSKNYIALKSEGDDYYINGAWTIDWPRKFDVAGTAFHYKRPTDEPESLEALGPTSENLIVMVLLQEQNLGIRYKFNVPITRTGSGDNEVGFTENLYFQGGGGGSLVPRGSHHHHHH

Assay [4] concerns the target human MMP13 (Homo sapiens (Human), UniProt P45452). Description: hMMP13 assay, Protocol 2 (390 MMP FRET Substrate I, Enzo enzyme). The format is biochemical. Conditions: Protocol 2, human MMP13 (Enzo Life Sciences), read-out: hMMP-13 potency IC50. As for the experimental part: Human MMP13 is preactivated by incubated the enzyme in the same buffer complemented with 1 mM freshly prepared p-Aminophenylmercuric acetate (AMPA) for 1 h at 37° C.

The target of assay [5] is human MMP14 (Homo sapiens (Human), UniProt P50281). Description: hMMP14 assay (390 MMP FRET Substrate I). Format: biochemical. As to conditions: human MMP14 (Biomol), read-out: hMMP-14 potency IC50.
Experimental: The basis for the assay is the cleavage of the substrate 390 MMP FRET Substrate I (Anaspec Cat #AS-27076) by human MMP14 (Biomol, Cat #SE-259).
The reaction is initiated by adding to the assay plate 390 MMP FRET Substrate I (10 μL, 2.5 μM) in the same buffer.
Finally, the fluorescence is read on the Envision (Perkin Elmer) after an incubation of 60 min at room temperature (Excitation 485 nm, Emission 530).
The target of assay [6] is human TACE (Homo sapiens (Human), UniProt P78536). Description: biochemical.
Sequence of human TACE (P78536 215-671): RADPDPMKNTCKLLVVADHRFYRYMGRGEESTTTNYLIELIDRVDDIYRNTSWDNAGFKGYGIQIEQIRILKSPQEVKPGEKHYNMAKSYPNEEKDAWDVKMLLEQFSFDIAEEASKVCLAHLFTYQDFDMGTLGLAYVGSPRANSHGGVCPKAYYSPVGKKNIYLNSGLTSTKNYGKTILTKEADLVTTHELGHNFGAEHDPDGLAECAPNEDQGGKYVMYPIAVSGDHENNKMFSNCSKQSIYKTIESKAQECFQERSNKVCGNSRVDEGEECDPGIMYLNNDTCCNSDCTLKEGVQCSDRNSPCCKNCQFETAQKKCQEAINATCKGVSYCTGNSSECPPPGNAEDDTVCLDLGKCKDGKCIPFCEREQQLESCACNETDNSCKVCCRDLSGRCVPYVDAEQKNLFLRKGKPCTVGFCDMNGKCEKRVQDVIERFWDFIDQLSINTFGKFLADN
Experimental: Finally, the fluorescence is read on the Envision (Perkin Elmer) after an incubation of 75 min at room temperature (Excitation 485 nm, Emission 530).
Setting [7] is: Protocol 2, 180 min at 37° C., read-out: ADAMTS4 potency IC50.

Sequence of human ADAMTS-5 (Q9UNA0 262-930): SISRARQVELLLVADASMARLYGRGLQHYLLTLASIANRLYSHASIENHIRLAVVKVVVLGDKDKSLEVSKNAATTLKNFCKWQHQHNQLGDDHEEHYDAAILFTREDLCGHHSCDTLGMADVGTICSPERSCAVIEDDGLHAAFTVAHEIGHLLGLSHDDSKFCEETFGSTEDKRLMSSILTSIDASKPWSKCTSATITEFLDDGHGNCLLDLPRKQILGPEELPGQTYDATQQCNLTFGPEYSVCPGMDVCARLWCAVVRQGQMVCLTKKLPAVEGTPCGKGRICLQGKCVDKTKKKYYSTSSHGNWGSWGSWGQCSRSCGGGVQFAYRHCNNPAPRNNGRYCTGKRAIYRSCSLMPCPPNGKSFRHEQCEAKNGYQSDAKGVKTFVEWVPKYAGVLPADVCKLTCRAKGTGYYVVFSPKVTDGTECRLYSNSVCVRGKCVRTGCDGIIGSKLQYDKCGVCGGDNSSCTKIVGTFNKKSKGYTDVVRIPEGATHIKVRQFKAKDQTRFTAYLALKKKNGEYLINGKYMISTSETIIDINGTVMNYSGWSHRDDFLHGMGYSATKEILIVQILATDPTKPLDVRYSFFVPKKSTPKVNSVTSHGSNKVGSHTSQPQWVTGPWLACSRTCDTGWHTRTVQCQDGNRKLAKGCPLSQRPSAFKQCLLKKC

As for `CCOc1cc(N2CCN(C(=O)CC[C@@]3(C)NC(=O)NC3=O)CC2)cc(OC)c1Cl` [Cpd 79, (5R)-5-[3-[4-(4-chloro-3-ethoxy-5-methoxy-phenyl)piperazin-1-yl]-3-oxo-propyl]-5-methyl-imidazolidine-2,4-dione], the IC50 in assay [1] (setting [7]) is above 100 nM; in assay [2], above 100 nM; in assay [3], 0.001 to 25 nM; in assay [4] it was above 100 nM; in assay [5], above 100 nM; in assay [6], above 100 nM.

Consider `COc1cc(N2CCN(C(=O)CC[C@@]3(C)NC(=O)NC3=O)C[C@@H]2C)ccc1F` [Cpd 93, (5R)-5-[3-[(3 S)-4-(4-fluoro-3-methoxy-phenyl)-3-methyl-piperazin-1-yl]-3-oxo-propyl]-5-methyl-imidazolidine-2,4-dione], for which the IC50 in assay [1] (setting [7]) was above 100 nM; in assay [2], above 100 nM; in assay [3] it was 0.001 to 25 nM; in assay [4], above 100 nM; in assay [5], above 100 nM; in assay [6] it was above 100 nM.

As for `COc1cc(N2CCN(C(=O)CC[C@@]3(C)NC(=O)NC3=O)C[C@@H]2C)cc(Cl)c1Cl` [Cpd 90, (5R)-5-[3-[(3 S)-4-(3,4-dichloro-5-methoxy-phenyl)-3-methyl-piperazin-1-yl]-3-oxo-propyl]-5-methyl-imidazolidine-2,4-dione], the IC50 in assay [1] is 25 to 50 nM; in assay [2], 0.001 to 25 nM; in assay [3] it was 0.001 to 25 nM; in assay [4] it was above 100 nM; in assay [5] it was above 100 nM; in assay [6] it was above 100 nM.

Consider `COc1cc(N2CCN(C(=O)CC[C@@]3(C)NC(=O)NC3=O)C[C@@H]2C(C)C)ccc1Cl` [Cpd 109, (5R)-5-[3-[(3S)-4-(4-chloro-3-methoxy-phenyl)-3-isopropyl-piperazin-1-yl]-3-oxo-propyl]-5-methyl-imidazolidine-2,4-dione], for which the IC50 in assay [1] (setting [7]), in assay [2], in assay [3], in assay [4], in assay [5] and in assay [6] was above 100 nM in each case.

In the case of `COc1cc(N2CCN(C(=O)CC[C@@]3(C)NC(=O)NC3=O)C[C@@H]2C)cc(Cl)c1F` [Cpd 63, (5R)-5-[3-[(3 S)-4-(3-chloro-4-fluoro-5-methoxy-phenyl)-3-methyl-piperazin-1-yl]-3-oxo-propyl]-5-methyl-imidazolidine-2,4-dione], the IC50 is above 100 nM in assay [1] (setting [7]); 25 to 50 nM in assay [2]; 0.001 to 25 nM in assay [3]; above 100 nM in assay [4]; above 100 nM in assay [5]; above 100 nM in assay [6].

For the molecule `COc1cc(N2CCN(C(=O)CC[C@@]3(C)NC(=O)NC3=O)C[C@@H]2C)ccc1Cl` [Cpd 55, (5R)-5-[3-[(3 S)-4-(4-chloro-3-methoxy-phenyl)-3-methyl-piperazin-1-yl]-3-oxo-propyl]-5-methyl-imidazolidine-2,4-dione], the IC50 in assay [1] (setting [7]) was above 100 nM; in assay [2] it was 50 to 100 nM; in assay [3] it was 0.001 to 25 nM; in assay [4], above 100 nM; in assay [5] it was above 100 nM; in assay [6], above 100 nM.

For `CCc1cc(N2CCN(C(=O)CC[C@@]3(C)NC(=O)NC3=O)C[C@@H]2C)cc(OC)c1Cl` [Cpd 106, (5R)-5-[3-[(3 S)-4-(4-chloro-3-ethyl-5-methoxy-phenyl)-3-methyl-piperazin-1-yl]-3-oxo-propyl]-5-methyl-imidazolidine-2,4-dione], the IC50 in assay [1] (setting [7]) was above 100 nM; in assay [2], above 100 nM; in assay [3], 0.001 to 25 nM; in assay [4] it was above 100 nM; in assay [5], above 100 nM; in assay [6], above 100 nM.

For the molecule `CCOc1cc(N2CCN(C(=O)CC[C@H]3NC(=O)NC3=O)C[C@@H]2C)cc(OC)c1Cl` [Cpd 150, (5R)-5-[3-[(3 S)-4-(4-chloro-3-ethoxy-5-methoxy-phenyl)-3-methyl-piperazin-1-yl]-3-oxo-propyl]imidazolidine-2,4-dione], the IC50 was above 100 nM in assay [1] (setting [7]); above 100 nM in assay [2]; 0.001 to 25 nM in assay [3]; above 100 nM in assay [4]; above 100 nM in assay [5]; above 100 nM in assay [6].

In the case of `COc1cc(N2CCN(C(=O)CC[C@@]3(C)NC(=O)NC3=O)CC2)cc(C)c1Cl` [Cpd 112, (5R)-5-[3-[4-(4-chloro-3-methoxy-5-methyl-phenyl)piperazin-1-yl]-3-oxo-propyl]-5-methyl-imidazolidine-2,4-dione], the IC50 in assay [1] was 50 to 100 nM; in assay [2], above 100 nM; in assay [3], 0.001 to 25 nM; in assay [4] it was above 100 nM; in assay [5], above 100 nM; in assay [6], above 100 nM.

For `COc1cc(N2CCN(C(=O)CC[C@@]3(C)NC(=O)NC3=O)CC2)cc(OC)c1F` [Cpd 74, (5R)-5-[3-[4-(4-fluoro-3,5-dimethoxy-phenyl)piperazin-1-yl]-3-oxo-propyl]-5-methyl-imidazolidine-2,4-dione], the IC50 was above 100 nM in assay [1] (setting [7]); above 100 nM in assay [2]; 0.001 to 25 nM in assay [3]; above 100 nM in assay [4]; above 100 nM in assay [5]; above 100 nM in assay [6].

On to `COc1cc(N2CCN(C(=O)CC[C@]3(C)NC(=O)NC3=O)C[C@@H]2C)ccc1Cl` [Cpd 146, (5 S)-5-[3-[(3 S)-4-(4-chloro-3-methoxy-phenyl)-3-methyl-piperazin-1-yl]-3-oxo-propyl]-5-methyl-imidazolidine-2,4-dione], for which the IC50 in assay [1] (setting [7]), in assay [2], in assay [3], in assay [4], in assay [5] and in assay [6] was above 100 nM throughout.

Consider `COc1cc(N2CCN(C(=O)CCC3(c4cccc(C)n4)NC(=O)NC3=O)C[C@@H]2C)cc(F)c1F` (stereo partly drawn) [Cpd 61, 5-[3-[(3S)-4-(3,4-difluoro-5-methoxy-phenyl)-3-methyl-piperazin-1-yl]-3-oxo-propyl]-5-(6-methyl-2-pyridyl)imidazolidine-2,4-dione], for which the IC50 in assay [1] (setting [7]) was above 100 nM; in assay [2], 25 to 50 nM; in assay [3], 0.001 to 25 nM; in assay [4] it was above 100 nM; in assay [5], above 100 nM; in assay [6], above 100 nM.

With `COc1cc(N2CCN(C(=O)CC[C@@]3(C)NC(=O)NC3=O)C[C@@H]2C)cc(F)c1Cl` [Cpd 119, (5R)-5-[3-[(3 S)-4-(4-chloro-3-fluoro-5-methoxy-phenyl)-3-methyl-piperazin-1-yl]-3-oxo-propyl]-5-methyl-imidazolidine-2,4-dione], the IC50 was above 100 nM in assay [1] (setting [7]); 0.001 to 25 nM in assay [2]; 0.001 to 25 nM in assay [3]; above 100 nM in assay [4]; above 100 nM in assay [5]; above 100 nM in assay [6].

Turning to `COc1cc(N2CCN(C(=O)[C@@H](C)C[C@@]3(C)NC(=O)NC3=O)C[C@@H]2C)cc(F)c1Cl` (stereo in doubt) [Cpd 120, 5-[3-[(3S)-4-(4-chloro-3-fluoro-5-methoxy-phenyl)-3-methyl-piperazin-1-yl]-2-methyl-3-oxo-propyl]-5-methyl-imidazolidine-2,4-dione], the IC50 was 50 to 100 nM in assay [1]; 0.001 to 25 nM in assay [2]; 0.001 to 25 nM in assay [3]; above 100 nM in assay [4]; above 100 nM in assay [5]; above 100 nM in assay [6].
